According to ChEMBL document CHEMBL3124888, “Inhibiting the HIV integration process: past, present, and the future” (J Med Chem, 2014):

Experiments:
[1] = target: T1, Human immunodeficiency virus type 1 integrase (Human immunodeficiency virus 1, UniProt Q7ZJM1); assay: Inhibition of HIV-1 integrase 3'-end processing activity
[2] = target: T1, Human immunodeficiency virus type 1 integrase; assay: Inhibition of HIV1 integrase strand transfer activity
[3] = Inhibition of HIV1 integrase/LEDGF-75 (unknown origin) interaction
[4] = target: T1, Human immunodeficiency virus type 1 integrase; assay: Inhibition of HIV-1 integrase strand transfer activity preincubated for 30 mins followed by 5'-end 32P-labeled linear double-stranded oligonucleotide addition
[5] = target: T1, Human immunodeficiency virus type 1 integrase; assay: Inhibition of HIV-1 integrase 3'-end processing activity preincubated for 30 mins followed by 5'-end 32P-labeled linear double-stranded oligonucleotide addition
[6] = Inhibition of HIV-1 His6-tagged integrase/Flag-tagged LEDGF-75 (unknown origin) interaction by AlphaScreen assay
[7] = system: Human immunodeficiency virus 1; assay: Antiviral activity against HIV-1 NL4-3 infected in human HuT78 cells assessed as inhibition of viral p24 production incubated for 4 days followed by compound washout measured after 48 hrs; type: functional, organism-based; details: Human immunodeficiency virus 1, NL4-3, HuT78
[8] = system: Human immunodeficiency virus 1; assay: Antiviral activity against HIV-1 harboring integrase T66I mutant relative to wild type HIV1; type: functional
[9] = system: Human immunodeficiency virus 1; assay: Antiviral activity against HIV-1 harboring integrase E138K/Q148K double mutant relative to wild type HIV1; type: functional
[10] = system: Human immunodeficiency virus 1; assay: Antiviral activity against HIV-1 harboring integrase T97A/Y143C double mutant relative to wild type HIV1; type: functional
[11] = system: Human immunodeficiency virus 1; assay: Antiviral activity against HIV1 3B infected in human MT4 cells assessed as inhibition of viral infection after 5 days by MTT assay in presence of human serum; type: functional; details: Human immunodeficiency virus 1, 3B, MT4, 120 h
[12] = system: Human immunodeficiency virus 1; assay: Antiviral activity against HIV-1 harboring integrase T97A/Y143R double mutant relative to wild type HIV1; type: functional
[13] = system: Human immunodeficiency virus 1; assay: Antiviral activity against HIV-1 harboring integrase E92Q mutant relative to wild type HIV1; type: functional
[14] = system: Human immunodeficiency virus 1; assay: Antiviral activity against HIV-1 harboring integrase G140S mutant relative to wild type HIV1; type: functional
[15] = system: Human immunodeficiency virus 1; assay: Antiviral activity against HIV-1 harboring integrase N155H mutant relative to wild type HIV1; type: functional
[16] = system: Human immunodeficiency virus 1; assay: Antiviral activity against HIV-1 harboring integrase G118R mutant relative to wild type HIV1; type: functional
[17] = system: Human immunodeficiency virus 1; assay: Antiviral activity against HIV-1 harboring integrase Q148K mutant relative to wild type HIV1; type: functional
[18] = system: Human immunodeficiency virus 1; assay: Antiviral activity against HIV-1 harboring integrase R263K mutant relative to wild type HIV1; type: functional
[19] = system: Human immunodeficiency virus 1; assay: Antiviral activity against HIV-1 harboring integrase G140S/Q148K double mutant relative to wild type HIV1; type: functional
[20] = system: Human immunodeficiency virus 1; assay: Antiviral activity against HIV-1 harboring integrase T97A mutant relative to wild type HIV1; type: functional
[21] = system: Human immunodeficiency virus 1; assay: Antiviral activity against HIV-1 harboring integrase Q148H mutant relative to wild type HIV1; type: functional
[22] = system: Human immunodeficiency virus 1; assay: Antiviral activity against HIV-1 harboring integrase E138K/Q148H double mutant relative to wild type HIV1; type: functional
[23] = system: Human immunodeficiency virus 1; assay: Antiviral activity against HIV-1 harboring integrase Y143R mutant relative to wild type HIV1; type: functional
[24] = Tmax in dog; type: ADME, organism-based, Canis lupus familiaris; details: in vivo
[25] = Tmax in rat; type: ADME, organism-based; details: in vivo
[26] = system: Human immunodeficiency virus 1; assay: Antiviral activity against HIV-1 harboring integrase T66I/R263K double mutant relative to wild type HIV1; type: functional
[27] = Oral bioavailability in rat; type: ADME, organism-based; details: in vivo
[28] = system: Human immunodeficiency virus 1; assay: Antiviral activity against HIV-1 harboring integrase E138K mutant relative to wild type HIV1; type: functional
[29] = system: Human immunodeficiency virus 1; assay: Antiviral activity against HIV-1 harboring integrase T66R mutant relative to wild type HIV1; type: functional
[30] = system: Human immunodeficiency virus 1; assay: Antiviral activity against HIV-1 harboring integrase E92Q/N155H double mutant relative to wild type HIV1; type: functional
[31] = system: Human immunodeficiency virus 1; assay: Antiviral activity against HIV-1 harboring integrase G140S/Q148H double mutant relative to wild type HIV1; type: functional
[32] = system: Human immunodeficiency virus 1; assay: Antiviral activity against HIV-1 harboring integrase Y143C mutant relative to wild type HIV1; type: functional
[33] = system: Human immunodeficiency virus 1; assay: Antiviral activity against HIV-1 harboring integrase Q148R mutant relative to wild type HIV1; type: functional
[34] = system: Human immunodeficiency virus 1; assay: Antiviral activity against HIV-1 harboring integrase G140C mutant relative to wild type HIV1; type: functional
[35] = system: Human immunodeficiency virus 1; assay: Antiviral activity against HIV-1 harboring integrase E92V mutant relative to wild type HIV1; type: functional
[36] = system: Human immunodeficiency virus
Description: Binding affinity to HIV integrase assessed as dissociation half life

T1 sequence (Q7ZJM1 whole entry): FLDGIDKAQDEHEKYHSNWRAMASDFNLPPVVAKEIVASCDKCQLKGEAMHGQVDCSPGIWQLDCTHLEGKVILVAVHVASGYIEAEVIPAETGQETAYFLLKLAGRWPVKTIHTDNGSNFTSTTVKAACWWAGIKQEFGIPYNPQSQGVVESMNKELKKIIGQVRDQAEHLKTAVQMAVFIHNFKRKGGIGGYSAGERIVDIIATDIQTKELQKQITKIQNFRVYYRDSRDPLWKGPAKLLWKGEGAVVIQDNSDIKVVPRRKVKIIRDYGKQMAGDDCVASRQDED

Question: Which results are given for `COC(=O)[C@H](COC(=O)/C=C/c1ccc(OC(C)=O)c(OC(C)=O)c1)NC(=O)/C=C/c1ccc(OC(C)=O)c(OC(C)=O)c1`?
Answer: IC50 [1]: 3 µM; IC50 [2]: 3 µM

Question: Which IC50 [3] does the source give for `C[C@@](Cc1ccc(O)c(O)c1)(NN)C(=O)O` [CARBIDOPA] here?
Answer: 6.54 µM

Question: For `O=C(c1ccccc1)c1ccc(C(c2c(O)c3ccccc3oc2=O)c2c(O)c3ccccc3oc2=O)cc1`, which IC50 [4] is on record?
Answer: 18 µM

Question: What about the IC50 [5] of the same molecule?
Answer: 27 µM

Question: For `C=CCN(Cc1ccccc1C(=O)NC(c1ccc(OC)cc1)c1ccc(OC)cc1)Cc1ccc2c(c1C(=O)O)OCO2`, which IC50 [6] is on record?
Answer: 8.1 µM

Question: What about the EC50 [7] of the same molecule?
Answer: 29 µM

Question: With `COc1cc2c(cc1Cc1cccc(Cl)c1F)c(=O)c(C(=O)O)cn2[C@H](CO)C(C)C` as the molecule, how does the “fold change (FC)” value [8] read?
Answer: >10

Question: What about the “fold change (FC)” value [9] of the same molecule?
Answer: >100

Question: What about the “fold change (FC)” value [10] of the same molecule?
Answer: <2

Question: What about the EC90 [11] of the same molecule?
Answer: 0.0017 µM

Question: What about the “fold change (FC)” value [12] of the same molecule?
Answer: <2

Question: What about the “fold change (FC)” value [13] of the same molecule?
Answer: 20

Question: What about the “fold change (FC)” value [14] of the same molecule?
Answer: 2

Question: What about the “fold change (FC)” value [15] of the same molecule?
Answer: 20

Question: And the “fold change (FC)” value [16]?
Answer: <2

Question: And the “fold change (FC)” value [17]?
Answer: 50

Question: What about the “fold change (FC)” value [18] of the same molecule?
Answer: 2

Question: What about the “fold change (FC)” value [19] of the same molecule?
Answer: >100

Question: And the “fold change (FC)” value [20]?
Answer: 2

Question: And the “fold change (FC)” value [21]?
Answer: 2

Question: And the “fold change (FC)” value [22]?
Answer: 10

Question: What about the “fold change (FC)” value [23] of the same molecule?
Answer: <2

Question: What about the Tmax [24] of the same molecule?
Answer: 30 min

Question: And the Tmax [25]?
Answer: 30 min

Question: What about the “fold change (FC)” value [26] of the same molecule?
Answer: >100

Question: What about the bioavailability [27] of the same molecule?
Answer: 30%

Question: What about the “fold change (FC)” value [28] of the same molecule?
Answer: 2

Question: And the “fold change (FC)” value [29]?
Answer: 50

Question: And the “fold change (FC)” value [30]?
Answer: >100

Question: And the “fold change (FC)” value [31]?
Answer: >100

Question: What about the “fold change (FC)” value [32] of the same molecule?
Answer: <2

Question: What about the “fold change (FC)” value [33] of the same molecule?
Answer: 50

Question: For `CCCCc1ncc(/C=C(\Cc2cccs2)C(=O)O)n1Cc1ccc(C(=O)O)cc1` [EPROSARTAN], which IC50 [3] is on record?
Answer: 36.9 µM

Question: Which “fold change (FC)” value [9] does the source give for `Cc1nnc(C(=O)NC(C)(C)c2nc(C(=O)NCc3ccc(F)cc3)c(O)c(=O)n2C)o1` here?
Answer: 10

Question: What about the “fold change (FC)” value [10] of the same molecule?
Answer: >100

Question: What about the “fold change (FC)” value [12] of the same molecule?
Answer: >100

Question: And the “fold change (FC)” value [13]?
Answer: 2

Question: What about the “fold change (FC)” value [14] of the same molecule?
Answer: 2

Question: And the “fold change (FC)” value [15]?
Answer: 20

Question: And the “fold change (FC)” value [34]?
Answer: >5

Question: And the “fold change (FC)” value [35]?
Answer: >5

Question: And the “fold change (FC)” value [16]?
Answer: 2

Question: And the “fold change (FC)” value [17]?
Answer: 50

Question: And the T1/2 [36]?
Answer: > 438 min

Question: And the “fold change (FC)” value [18]?
Answer: <2

Question: And the “fold change (FC)” value [19]?
Answer: >100

Question: What about the “fold change (FC)” value [20] of the same molecule?
Answer: 2

Question: And the “fold change (FC)” value [21]?
Answer: 10

Question: What about the “fold change (FC)” value [22] of the same molecule?
Answer: <2

Question: What about the “fold change (FC)” value [23] of the same molecule?
Answer: 20

Question: What about the “fold change (FC)” value [26] of the same molecule?
Answer: <2

Question: What about the “fold change (FC)” value [28] of the same molecule?
Answer: 2

Question: And the “fold change (FC)” value [29]?
Answer: 2

Question: What about the “fold change (FC)” value [30] of the same molecule?
Answer: 50

Question: And the “fold change (FC)” value [31]?
Answer: >100

Question: And the “fold change (FC)” value [32]?
Answer: 2

Question: What about the “fold change (FC)” value [33] of the same molecule?
Answer: 20
